One assay addresses bovine rhodopsin (Bos taurus, UniProt P02699). The assay can be described thus: HierDock binding energy calculation (Eq. 1) of retinal ligands docked into the rhodopsin structure. As to conditions: all-trans-retinal versus 11-cis-retinal, HierDock Eq. 1. From the text: The negative of the molecular surface of the protein was used to define potential binding regions within the target protein over which the various ligand conformations are to be sampled. The void regions are mapped with spheres generated over the whole target protein using the Sphgen program in DOCK (see Kuntz laboratory at UCSF, San Francisco, Calif.).
To locate the most favorable ligand binding site(s), DOCK 4.0 (Ewing and Kuntz, 1997, incorporated herein by reference) can be used to generate a set of conformations for binding the ligand of interest (e.g. in the case of rhodopsin, 11-cis-retinal—a ligand known to bind to bovine rhodopsin) to each of the overlapping docking regions identified above. For this docking step, a bump filter of 10, a non-distance-dependent dielectric constant of 1.0, and a cutoff of 10 Å may be used for energy evaluation. These values may be adjusted according to specific target proteins. […]
The ligand/protein conformations from Step 5 are further energy-minimized with all atoms (protein, lipid, and ligand) movable using conjugate gradients. The structure with the binding energy calculated by Eq. 1 is selected as: BE1=Energy[ligand in protein complex]−Energy[free Ligand in solvent] […]
Here the energy of the ligand in water is calculated using DREIDING FF and analytical volume Generalized-Born continuum solvation (GBCS) method. […]

In assay [1] the target is T1, rhodopsin (Bos taurus, UniProt P02699). The settings on record: Okada et al., 2001; cited from earlier work.
T1 sequence (P02699 whole entry): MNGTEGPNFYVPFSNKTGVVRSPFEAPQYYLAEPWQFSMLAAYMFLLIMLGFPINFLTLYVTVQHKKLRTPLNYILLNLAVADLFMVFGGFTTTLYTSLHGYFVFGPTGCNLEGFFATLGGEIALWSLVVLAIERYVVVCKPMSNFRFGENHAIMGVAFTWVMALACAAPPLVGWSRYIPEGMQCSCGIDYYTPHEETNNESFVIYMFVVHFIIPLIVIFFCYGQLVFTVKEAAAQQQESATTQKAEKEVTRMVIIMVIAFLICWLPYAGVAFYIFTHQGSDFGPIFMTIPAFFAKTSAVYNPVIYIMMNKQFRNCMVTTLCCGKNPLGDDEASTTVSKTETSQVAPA
Assay [2] deals with T1, rhodopsin. The settings on record: experimental result, retinal ligand/protein complex, Okada et al., 2001; cited from earlier work.

This is an account of results in patent US20050136481A1, “Systems and methods for predicting the structure and function of multipass transmembrane proteins” (priority 2003, published 2005).

bovine rhodopsin, sequence (P02699 whole entry): as above

`CC1=C(/C=C/C(C)=C/C=C/C(C)=C/C=O)C(C)(C)CCC1` [all-trans-retinal]: at bovine rhodopsin, the “difference in binding energy” value is on record as 32 kcal/mol. Turning to `CC1=C(/C=C/C(C)=C/C=C/C(C)=C/C=O)C(C)(C)CCC1` [11-cis-retinal], at rhodopsin [1], the “effect on G-protein signaling” value is “inverse agonist”. For the compound `CC1=C(/C=C/C(C)=C/C=C/C(C)=C/C=O)C(C)(C)CCC1` [retinal], at rhodopsin [2], the “energy stored upon isomerization in the protein” value was 34.7 ± 2.2 kcal/mol.
